Here are results for seven sequences from publication PMC2841005 (Developmental and comparative immunology, 2010).

Format in all cases: cell-based
One assay relates to E. coli O157:H7. Nature of the assay: MIC, broth micro-dilution assay. Background: Dilution methods test growth across graded concentrations, often in twofold steps.
Assay [1] concerns Gram-negative and Gram-positive bacterial strains. Kind of assay: Antibacterial activity against the panel of strains, broth micro-dilution assay.
Another assay has as its system bacteria. Kind of assay: Antibacterial test of the first synthetic 27-residue repeat peptide. The note with it: data not shown.

In the case of “SLGTPDHYHGGRHSISRGSQSTGPTHPGYNRRNAR [LP3]”, in the assay on E. coli O157:H7, the “Activity against E. coli O157:H7 (in words)” value was “low activity”. Also, the “Antibacterial activity against the bacterial strains tested (in words)” value (“Antibacterial activity” for short) in assay [1] was “active against bacteria”. The corresponding values for “SLGTPDHYHGGRHSISRGSQSTGPTHPGYNRRNA [LP3A]” are “inactive” and “inactive”.

“ESGNEPLWLYQGDNIPKAPSTAEHPFLPSIIDDVKFNPDRRYA [LP2A]”: the “Antibacterial activity” value in assay [1] is listed as “did not affect the bacterial growth”. With RSVETLASQEHLSSLPMDSQETLLRGT, in the assay on bacteria, the “Killing of bacteria (in words)” value is “did not kill any bacteria”.

As to “ESGNEPLWLYQGDNIPKAPSTAEHPFLPSIIDDVKFNPDRRYAR [LP2]”, the “Antibacterial activity” value in assay [1] is on record as “did not exhibit antimicrobial activity”. The same measure, in the same setting: next, SVETLASQEHLSSLPMDSQETLLRGTR [LP4]: “no activity”; SVETLASQEHLSSLPMDSQETLLRGT [LP4A]: “inactive”.
